# Reference: ChEMBL document CHEMBL1201862, “PubChem BioAssay data set” (2004)
# Active and inactive are the calls of the source.
# Key:
# Aminopeptidase N = target: T1, Aminopeptidase N (Plasmodium falciparum FcB1/Columbia, UniProt O96935); assay: P. falciparum M1AAP inhibitors, biochemical, fluorogenic H-Leu-NHMec substrate, 1536-well (AID 1445); parameters: species or system Plasmodium falciparum 3D7, 3D7
# T1 sequence (O96935 whole entry): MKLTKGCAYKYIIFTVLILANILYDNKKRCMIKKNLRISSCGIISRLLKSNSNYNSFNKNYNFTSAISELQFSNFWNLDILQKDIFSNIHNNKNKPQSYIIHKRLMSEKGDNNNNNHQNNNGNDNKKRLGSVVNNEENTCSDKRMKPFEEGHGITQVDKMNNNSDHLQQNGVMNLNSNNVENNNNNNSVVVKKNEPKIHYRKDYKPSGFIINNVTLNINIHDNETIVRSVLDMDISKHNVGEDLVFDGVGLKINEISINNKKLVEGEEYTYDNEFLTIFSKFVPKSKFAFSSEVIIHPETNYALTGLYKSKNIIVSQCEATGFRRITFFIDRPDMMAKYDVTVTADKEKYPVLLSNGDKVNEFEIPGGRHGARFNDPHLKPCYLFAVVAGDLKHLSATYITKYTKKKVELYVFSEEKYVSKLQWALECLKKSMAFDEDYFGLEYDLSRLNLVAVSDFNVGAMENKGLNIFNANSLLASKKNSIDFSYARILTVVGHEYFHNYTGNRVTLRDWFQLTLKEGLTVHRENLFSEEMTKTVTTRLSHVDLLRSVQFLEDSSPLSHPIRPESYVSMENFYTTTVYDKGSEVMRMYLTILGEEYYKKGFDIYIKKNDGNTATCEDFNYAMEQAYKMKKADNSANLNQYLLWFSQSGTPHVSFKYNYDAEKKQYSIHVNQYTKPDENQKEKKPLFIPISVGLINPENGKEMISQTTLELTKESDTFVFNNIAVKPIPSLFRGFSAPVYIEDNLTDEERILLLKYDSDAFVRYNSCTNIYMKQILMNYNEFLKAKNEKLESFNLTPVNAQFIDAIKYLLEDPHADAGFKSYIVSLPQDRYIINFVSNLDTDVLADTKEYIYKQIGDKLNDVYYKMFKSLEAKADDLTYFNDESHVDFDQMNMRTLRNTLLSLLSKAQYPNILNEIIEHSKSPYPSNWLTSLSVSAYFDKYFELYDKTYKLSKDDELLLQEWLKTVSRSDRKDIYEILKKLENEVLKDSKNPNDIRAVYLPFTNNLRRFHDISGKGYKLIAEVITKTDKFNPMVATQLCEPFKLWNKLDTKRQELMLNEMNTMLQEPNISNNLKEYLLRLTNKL
# [1] = target: Lysosomal acid glucosylceramidase (Homo sapiens, UniProt P04062); assay: Dose response cell-based high throughput screening assay to identify enhancers of beta-glucosidase activity. [Related pubchem assays: 784 ]; format: functional
# [2] = target: T2, DNA repair and recombination protein RAD54-like (Homo sapiens, UniProt Q92698); assay: inhibitors of human RAD54 branch migration, confirmation, biochemical, fluorescence, cherry-picked samples, dose series (AID 651657); format: functional
# T2 sequence (Q92698 whole entry): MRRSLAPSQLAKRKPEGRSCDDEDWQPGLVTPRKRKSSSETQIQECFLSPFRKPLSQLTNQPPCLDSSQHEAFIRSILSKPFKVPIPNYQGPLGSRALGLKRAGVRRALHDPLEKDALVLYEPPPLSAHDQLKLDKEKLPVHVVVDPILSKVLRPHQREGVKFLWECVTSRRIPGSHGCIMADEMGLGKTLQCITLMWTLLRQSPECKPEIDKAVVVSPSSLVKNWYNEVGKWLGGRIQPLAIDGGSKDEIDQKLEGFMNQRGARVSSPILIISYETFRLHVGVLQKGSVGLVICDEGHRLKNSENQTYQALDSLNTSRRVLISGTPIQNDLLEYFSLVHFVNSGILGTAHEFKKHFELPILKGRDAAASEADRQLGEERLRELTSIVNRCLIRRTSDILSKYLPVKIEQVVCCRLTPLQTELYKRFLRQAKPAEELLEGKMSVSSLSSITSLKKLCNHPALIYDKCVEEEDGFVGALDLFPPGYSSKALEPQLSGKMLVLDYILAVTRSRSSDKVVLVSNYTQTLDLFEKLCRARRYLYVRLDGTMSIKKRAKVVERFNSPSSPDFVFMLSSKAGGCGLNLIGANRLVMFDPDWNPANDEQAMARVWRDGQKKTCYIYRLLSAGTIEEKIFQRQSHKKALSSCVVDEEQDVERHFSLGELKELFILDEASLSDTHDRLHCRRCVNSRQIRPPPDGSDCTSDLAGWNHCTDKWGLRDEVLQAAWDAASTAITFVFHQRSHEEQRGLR
# Cytochrome P450 2D6 = Cytochrome P450 2D6 (Homo sapiens, UniProt P10635);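 further: CYP2D6 member of a cytochrome P450 panel assay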
# Cytochrome P450 1A2 = target: T3, Cytochrome P450 1A2 (Homo sapiens, UniProt P05177);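 further: PubChem cytochrome P450 panel assay, CYP1A2 panel member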
# T3 sequence (P05177 whole entry): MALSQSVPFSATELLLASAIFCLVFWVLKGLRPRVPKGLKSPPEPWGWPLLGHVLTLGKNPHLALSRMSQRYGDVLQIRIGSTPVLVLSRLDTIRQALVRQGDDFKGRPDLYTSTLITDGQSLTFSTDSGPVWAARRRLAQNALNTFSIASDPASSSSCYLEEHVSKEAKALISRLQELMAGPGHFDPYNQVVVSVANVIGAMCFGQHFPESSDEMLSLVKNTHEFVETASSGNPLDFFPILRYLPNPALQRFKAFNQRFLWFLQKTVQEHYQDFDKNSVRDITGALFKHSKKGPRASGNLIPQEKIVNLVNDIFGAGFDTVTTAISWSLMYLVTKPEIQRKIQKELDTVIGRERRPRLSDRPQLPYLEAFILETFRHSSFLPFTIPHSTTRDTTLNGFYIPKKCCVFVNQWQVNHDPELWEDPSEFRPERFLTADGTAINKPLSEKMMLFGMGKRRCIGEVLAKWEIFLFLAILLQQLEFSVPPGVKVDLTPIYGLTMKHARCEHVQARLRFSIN
# [3] = polyadenylation inhibitors in yeast reporter, dose response, luminescence, S. cerevisiae SKY197-pL101 (AID 2525); format: functional, cell-based
# [4] = Luminescence Cell-Based Dose Confirmation HTS to Identify Inhibitors of Polyadenylation.; format: functional
# HEK293 = assay: inhibitors of LMP1-driven NF-kB reporter, dose response, cell-based, HEK293, luciferase, cherry-pick (AID 588343); format: functional; conditions: Homo sapiens
# [5] = target: T4, Rac GTPase-activating protein 1 (Homo sapiens, UniProt Q9H0H5); assay: MgcRacGAP GTPase-activating activity inhibitors, confirmation, biochemical, ADP Hunter fluorescence, primary and confirmatory (AID 624330); format: functional
# T4 sequence (Q9H0H5 whole entry): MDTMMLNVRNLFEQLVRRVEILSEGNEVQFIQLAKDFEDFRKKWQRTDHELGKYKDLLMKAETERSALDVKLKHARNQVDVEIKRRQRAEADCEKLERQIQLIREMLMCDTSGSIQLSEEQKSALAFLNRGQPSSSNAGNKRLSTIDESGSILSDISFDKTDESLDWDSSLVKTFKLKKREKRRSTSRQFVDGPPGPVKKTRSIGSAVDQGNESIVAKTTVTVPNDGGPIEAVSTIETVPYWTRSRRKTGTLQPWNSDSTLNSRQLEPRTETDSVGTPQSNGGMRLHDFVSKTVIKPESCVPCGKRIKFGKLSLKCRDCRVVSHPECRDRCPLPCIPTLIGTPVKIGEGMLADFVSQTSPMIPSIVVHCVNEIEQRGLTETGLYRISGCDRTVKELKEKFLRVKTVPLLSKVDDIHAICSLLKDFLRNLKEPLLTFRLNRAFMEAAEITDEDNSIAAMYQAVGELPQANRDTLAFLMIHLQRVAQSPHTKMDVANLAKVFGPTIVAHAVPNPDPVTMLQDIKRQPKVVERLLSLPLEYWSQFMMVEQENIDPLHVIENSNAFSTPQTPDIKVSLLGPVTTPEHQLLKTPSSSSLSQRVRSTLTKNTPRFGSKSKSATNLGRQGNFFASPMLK
# [6] = target: T5, Eukaryotic translation initiation factor 2-alpha kinase 3 (Homo sapiens, UniProt Q9NZJ5); assay: Dose response cell-based high-throughput screening assay to measure PERK inhibition. [Related pubchem assays: 1416 ]; format: functional
# [7] = target: T5, Eukaryotic translation initiation factor 2-alpha kinase 3; assay: Counterscreen assay for PERK inhibitors: Dose response cell-based high throughput screening assay to measure inhibition of PERK at 6 hours. [Related pubchem assays: 1522, 1416 ]; format: functional
# [8] = target: T6, Voltage-gated N-type calcium channel alpha-1B subunit/Amyloid beta A4 precursor protein-binding family A member 1 (Homo sapiens, UniProt Q00975+Q02410); assay: disruptors of Mint-PDZ/N-type channel peptide interaction – biochemical, HTRF, set 2, SAR follow-up (AID 434980); format: functional
# [9] = target: T6, Voltage-gated N-type calcium channel alpha-1B subunit/Amyloid beta A4 precursor protein-binding family A member 1; assay: disruptors of Mint-PDZ/N-type channel peptide interaction – biochemical, HTRF, SAR follow-up (AID 2489); format: functional
# Protein Rev = Protein Rev (Human immunodeficiency virus type 1 group M subtype B (isolate HXB2)(HIV-1), UniProt P04618); assay: inhibitors of Rev binding to RRE RNA, dose response, biochemical, fluorescence polarization, HIV-1 (AID 434976); parameters: species or system Human immunodeficiency virus 1
# [10] = target: Female germline-specific tumor suppressor gld-1 (Caenorhabditis elegans, UniProt Q17339); assay: inhibitors of GLD-1 binding to TGE RNA, dose response, biochemical, fluorescence polarization, C. elegans (AID 2802);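 further: fluorescence polarization of labeled TGE RNA bound by purified gld-1 protein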
# [11] = target: T7, RNA-binding protein pos-1 (Caenorhabditis elegans, UniProt G5EF15); assay: inhibitors of POS-1/mex-3 RNA binding, dose response, biochemical, fluorescence polarization (AID 1964);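 further: purified POS-1 fused to maltose binding protein made in E. coli; potency of compounds blocking POS-1 binding to fluorescent RNA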
# T7 sequence (G5EF15 whole entry): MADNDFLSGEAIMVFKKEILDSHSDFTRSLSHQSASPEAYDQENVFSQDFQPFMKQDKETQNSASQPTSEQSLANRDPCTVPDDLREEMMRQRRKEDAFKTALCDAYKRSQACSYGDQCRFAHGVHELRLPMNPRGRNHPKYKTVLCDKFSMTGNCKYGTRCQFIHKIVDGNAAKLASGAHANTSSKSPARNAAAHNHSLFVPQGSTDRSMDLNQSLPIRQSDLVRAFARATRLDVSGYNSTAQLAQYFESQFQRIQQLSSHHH
# [12] = target: T8, Zinc finger protein mex-5 (Caenorhabditis elegans, UniProt Q9XUB2); assay: MEX-5/TCR-2 RNA interaction inhibitors, dose response, biochemical, C. elegans, fluorescence polarization (AID 1960)
# T8 sequence (Q9XUB2 whole entry): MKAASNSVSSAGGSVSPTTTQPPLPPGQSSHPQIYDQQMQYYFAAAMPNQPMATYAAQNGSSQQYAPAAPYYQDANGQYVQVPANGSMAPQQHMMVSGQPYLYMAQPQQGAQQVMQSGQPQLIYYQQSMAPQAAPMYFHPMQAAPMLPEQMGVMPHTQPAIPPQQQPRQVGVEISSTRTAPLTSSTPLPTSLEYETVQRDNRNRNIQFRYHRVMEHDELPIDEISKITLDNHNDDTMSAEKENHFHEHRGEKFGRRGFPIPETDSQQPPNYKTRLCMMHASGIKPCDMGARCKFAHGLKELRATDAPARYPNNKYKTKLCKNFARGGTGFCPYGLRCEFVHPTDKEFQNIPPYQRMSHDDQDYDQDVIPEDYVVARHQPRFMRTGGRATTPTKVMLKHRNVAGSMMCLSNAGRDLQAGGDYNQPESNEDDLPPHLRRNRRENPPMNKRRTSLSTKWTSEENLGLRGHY
# Hexokinase HKDC1 = target: T9, Hexokinase HKDC1 (Homo sapiens, UniProt Q2TB90); assay: HKDC1 hexokinase inhibitors, dose response, biochemical, W721R variant (AID 504729); format: functional
# T9 sequence (Q2TB90 whole entry): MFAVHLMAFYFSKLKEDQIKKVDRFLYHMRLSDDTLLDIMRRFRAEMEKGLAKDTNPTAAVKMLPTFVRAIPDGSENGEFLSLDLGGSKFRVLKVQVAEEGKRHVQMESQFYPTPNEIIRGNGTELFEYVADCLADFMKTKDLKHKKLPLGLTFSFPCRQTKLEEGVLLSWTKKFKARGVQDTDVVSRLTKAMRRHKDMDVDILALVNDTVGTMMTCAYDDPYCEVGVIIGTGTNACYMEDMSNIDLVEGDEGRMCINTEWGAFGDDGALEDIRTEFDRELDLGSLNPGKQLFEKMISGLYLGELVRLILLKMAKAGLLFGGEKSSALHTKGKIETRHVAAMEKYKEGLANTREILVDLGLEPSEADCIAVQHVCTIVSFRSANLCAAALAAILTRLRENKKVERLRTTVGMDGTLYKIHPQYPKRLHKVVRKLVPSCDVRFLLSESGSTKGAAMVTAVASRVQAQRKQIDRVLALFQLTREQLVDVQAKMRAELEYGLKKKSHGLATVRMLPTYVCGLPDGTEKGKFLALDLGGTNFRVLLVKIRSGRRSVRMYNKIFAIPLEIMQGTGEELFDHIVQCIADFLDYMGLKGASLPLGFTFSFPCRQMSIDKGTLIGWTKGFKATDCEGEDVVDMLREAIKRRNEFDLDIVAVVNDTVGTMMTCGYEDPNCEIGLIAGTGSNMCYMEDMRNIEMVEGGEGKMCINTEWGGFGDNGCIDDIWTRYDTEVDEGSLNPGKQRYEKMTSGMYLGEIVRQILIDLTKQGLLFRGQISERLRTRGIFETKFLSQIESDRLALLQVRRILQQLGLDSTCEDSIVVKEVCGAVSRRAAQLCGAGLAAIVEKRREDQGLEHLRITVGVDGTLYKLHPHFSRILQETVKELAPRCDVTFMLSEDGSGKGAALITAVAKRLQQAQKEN
# INS1 = assay: beta cell apoptosis inhibitors, cytokine rescue, dose response, luminescence, retest (AID 449756); format: functional, cell-based; conditions: Rattus norvegicus;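 further: cell death triggered by IL-1 beta plus TNF-alpha plus IFN-gamma mixture; protective hits raise ATP signal compared with cytokine alone wells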
# T6 sequence (Q00975 whole entry): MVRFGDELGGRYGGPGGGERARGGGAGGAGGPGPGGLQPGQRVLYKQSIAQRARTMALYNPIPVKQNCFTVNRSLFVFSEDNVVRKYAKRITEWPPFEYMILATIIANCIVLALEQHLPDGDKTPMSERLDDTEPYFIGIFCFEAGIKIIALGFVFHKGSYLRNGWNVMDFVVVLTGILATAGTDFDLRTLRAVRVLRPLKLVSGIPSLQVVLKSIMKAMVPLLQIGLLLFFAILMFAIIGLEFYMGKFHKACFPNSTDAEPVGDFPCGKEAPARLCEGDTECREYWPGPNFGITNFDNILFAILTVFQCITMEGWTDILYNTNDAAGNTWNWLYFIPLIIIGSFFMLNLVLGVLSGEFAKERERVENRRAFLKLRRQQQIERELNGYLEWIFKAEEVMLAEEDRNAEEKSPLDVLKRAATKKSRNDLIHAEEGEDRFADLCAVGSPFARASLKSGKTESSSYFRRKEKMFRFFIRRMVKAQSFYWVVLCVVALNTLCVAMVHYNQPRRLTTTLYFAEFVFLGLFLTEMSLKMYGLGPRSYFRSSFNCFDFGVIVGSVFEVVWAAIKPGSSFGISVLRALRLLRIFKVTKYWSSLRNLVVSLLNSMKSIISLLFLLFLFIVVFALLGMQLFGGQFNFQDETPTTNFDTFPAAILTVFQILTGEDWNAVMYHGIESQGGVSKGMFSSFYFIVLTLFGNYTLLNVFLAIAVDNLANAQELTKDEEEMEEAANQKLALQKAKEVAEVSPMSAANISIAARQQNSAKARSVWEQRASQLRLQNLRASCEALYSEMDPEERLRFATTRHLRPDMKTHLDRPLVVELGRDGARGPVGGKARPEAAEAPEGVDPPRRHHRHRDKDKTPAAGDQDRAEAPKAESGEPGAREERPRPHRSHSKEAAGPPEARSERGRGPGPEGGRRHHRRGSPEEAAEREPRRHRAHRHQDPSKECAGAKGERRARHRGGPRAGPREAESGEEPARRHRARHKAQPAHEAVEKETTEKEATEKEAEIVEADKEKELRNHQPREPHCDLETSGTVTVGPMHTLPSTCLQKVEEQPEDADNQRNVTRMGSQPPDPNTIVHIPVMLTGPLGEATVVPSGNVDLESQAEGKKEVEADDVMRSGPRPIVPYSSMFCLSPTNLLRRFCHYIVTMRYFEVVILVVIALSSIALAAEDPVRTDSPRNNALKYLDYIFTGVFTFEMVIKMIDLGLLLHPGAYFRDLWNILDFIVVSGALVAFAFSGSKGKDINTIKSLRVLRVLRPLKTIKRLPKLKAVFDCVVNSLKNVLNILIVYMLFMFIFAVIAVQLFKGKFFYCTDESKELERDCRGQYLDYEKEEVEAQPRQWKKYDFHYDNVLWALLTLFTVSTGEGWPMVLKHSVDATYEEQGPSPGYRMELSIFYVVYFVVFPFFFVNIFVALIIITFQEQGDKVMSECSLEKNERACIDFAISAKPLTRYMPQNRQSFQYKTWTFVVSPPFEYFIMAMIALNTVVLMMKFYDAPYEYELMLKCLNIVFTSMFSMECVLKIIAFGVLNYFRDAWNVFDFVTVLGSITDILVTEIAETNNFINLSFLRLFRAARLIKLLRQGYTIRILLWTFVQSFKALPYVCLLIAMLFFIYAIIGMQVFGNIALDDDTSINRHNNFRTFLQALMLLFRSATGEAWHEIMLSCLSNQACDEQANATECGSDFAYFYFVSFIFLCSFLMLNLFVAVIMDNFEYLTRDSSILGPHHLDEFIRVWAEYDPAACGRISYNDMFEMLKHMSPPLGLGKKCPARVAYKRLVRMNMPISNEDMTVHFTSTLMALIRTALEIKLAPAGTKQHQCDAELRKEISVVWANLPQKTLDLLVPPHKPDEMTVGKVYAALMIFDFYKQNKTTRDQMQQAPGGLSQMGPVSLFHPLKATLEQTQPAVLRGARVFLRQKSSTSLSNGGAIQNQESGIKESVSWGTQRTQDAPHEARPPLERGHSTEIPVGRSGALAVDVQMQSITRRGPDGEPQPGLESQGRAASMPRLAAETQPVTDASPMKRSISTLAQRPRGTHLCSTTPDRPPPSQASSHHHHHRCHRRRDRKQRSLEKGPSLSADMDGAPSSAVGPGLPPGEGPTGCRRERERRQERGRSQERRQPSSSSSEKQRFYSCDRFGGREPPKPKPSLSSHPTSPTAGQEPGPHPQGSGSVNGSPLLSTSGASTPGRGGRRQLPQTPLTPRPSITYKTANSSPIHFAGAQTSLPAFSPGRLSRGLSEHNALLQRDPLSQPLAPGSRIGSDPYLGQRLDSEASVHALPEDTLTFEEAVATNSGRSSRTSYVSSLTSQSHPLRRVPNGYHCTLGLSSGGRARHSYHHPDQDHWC
# T6 sequence (Q02410 whole entry): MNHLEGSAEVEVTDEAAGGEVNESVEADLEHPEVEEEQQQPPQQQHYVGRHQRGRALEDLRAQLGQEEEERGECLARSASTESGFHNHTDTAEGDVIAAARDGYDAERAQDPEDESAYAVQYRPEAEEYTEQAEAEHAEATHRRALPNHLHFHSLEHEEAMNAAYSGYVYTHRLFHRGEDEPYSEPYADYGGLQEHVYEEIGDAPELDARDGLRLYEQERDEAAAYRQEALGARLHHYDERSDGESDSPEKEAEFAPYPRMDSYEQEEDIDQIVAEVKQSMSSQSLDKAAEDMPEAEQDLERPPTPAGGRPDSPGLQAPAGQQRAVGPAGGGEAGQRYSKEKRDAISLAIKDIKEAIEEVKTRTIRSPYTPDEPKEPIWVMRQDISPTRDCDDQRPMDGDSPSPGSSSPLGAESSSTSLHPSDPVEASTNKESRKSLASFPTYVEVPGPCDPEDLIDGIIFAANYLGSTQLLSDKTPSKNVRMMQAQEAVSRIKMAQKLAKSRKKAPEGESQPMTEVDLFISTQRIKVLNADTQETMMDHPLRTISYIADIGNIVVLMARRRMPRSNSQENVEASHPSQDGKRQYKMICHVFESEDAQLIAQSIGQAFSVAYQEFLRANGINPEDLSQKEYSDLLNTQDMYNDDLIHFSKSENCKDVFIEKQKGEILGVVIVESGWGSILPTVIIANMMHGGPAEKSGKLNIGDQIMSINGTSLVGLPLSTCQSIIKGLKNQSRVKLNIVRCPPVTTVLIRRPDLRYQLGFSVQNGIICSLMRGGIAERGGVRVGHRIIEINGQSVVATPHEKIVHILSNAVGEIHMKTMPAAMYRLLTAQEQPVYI
# T5 sequence (Q9NZJ5 whole entry): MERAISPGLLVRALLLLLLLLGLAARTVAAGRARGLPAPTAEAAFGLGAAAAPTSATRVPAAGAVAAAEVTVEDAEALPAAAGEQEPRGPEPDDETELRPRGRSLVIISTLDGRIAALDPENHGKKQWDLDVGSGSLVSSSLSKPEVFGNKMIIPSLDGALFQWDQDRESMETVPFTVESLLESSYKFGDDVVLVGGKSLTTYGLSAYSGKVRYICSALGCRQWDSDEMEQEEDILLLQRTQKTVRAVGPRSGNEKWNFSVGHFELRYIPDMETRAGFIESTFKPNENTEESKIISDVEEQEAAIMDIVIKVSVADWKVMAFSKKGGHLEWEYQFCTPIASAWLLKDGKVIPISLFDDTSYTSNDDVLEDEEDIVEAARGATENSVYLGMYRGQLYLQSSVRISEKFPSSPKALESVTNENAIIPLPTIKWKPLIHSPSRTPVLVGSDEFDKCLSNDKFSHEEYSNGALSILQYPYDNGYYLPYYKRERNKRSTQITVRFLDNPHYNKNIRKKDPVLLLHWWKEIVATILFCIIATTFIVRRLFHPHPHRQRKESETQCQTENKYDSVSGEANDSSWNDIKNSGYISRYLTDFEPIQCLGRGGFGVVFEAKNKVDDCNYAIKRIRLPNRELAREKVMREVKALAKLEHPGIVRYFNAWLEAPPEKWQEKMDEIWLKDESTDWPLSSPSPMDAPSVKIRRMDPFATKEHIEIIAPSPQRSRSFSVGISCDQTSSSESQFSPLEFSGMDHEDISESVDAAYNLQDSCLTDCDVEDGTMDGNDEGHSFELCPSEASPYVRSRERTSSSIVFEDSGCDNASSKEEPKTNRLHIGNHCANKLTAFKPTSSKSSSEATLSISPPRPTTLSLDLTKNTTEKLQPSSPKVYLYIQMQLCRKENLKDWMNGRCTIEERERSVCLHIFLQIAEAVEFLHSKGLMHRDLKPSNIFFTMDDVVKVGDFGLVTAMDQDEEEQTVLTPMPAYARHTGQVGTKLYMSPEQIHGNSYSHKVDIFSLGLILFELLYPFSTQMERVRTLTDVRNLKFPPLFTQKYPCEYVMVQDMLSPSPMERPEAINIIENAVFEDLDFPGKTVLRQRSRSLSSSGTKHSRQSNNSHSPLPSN
# Sequence of Lysosomal acid glucosylceramidase (P04062 whole entry): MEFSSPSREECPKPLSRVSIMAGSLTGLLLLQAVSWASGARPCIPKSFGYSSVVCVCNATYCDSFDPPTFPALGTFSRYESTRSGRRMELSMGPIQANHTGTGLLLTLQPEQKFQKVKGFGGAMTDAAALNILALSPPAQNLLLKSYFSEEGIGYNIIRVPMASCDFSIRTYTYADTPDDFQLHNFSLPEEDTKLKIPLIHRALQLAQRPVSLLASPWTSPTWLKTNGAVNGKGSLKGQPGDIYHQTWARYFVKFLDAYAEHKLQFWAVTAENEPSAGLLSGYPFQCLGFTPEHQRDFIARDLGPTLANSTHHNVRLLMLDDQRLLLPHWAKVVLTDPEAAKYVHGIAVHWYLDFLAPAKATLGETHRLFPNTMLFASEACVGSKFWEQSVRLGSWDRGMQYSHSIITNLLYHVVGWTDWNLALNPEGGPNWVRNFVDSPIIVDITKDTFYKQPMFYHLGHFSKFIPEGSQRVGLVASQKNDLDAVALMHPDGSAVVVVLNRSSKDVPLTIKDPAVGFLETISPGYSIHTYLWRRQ
# Sequence of Protein Rev (P04618 whole entry): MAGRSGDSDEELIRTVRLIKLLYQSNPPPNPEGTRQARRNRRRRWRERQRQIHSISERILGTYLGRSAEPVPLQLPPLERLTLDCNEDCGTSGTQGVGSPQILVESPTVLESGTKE
smiles,measurement,setting,value
CCN1CCN(CCCNC(=O)c2cc3cc4ccc(OC)cc4nc3o2)CC1,IC50,Aminopeptidase N,107 µM (active)
same,EC50,[1],15.9 µM (not active)
same,AC50,[2],26.5 µM (active)
same,AC50,Cytochrome P450 2D6,1.41 µM (inconclusive)
same,AC50,Cytochrome P450 1A2,31.6 µM (inconclusive)
COc1cc(/C=C2\SC(=S)N(NC(=O)c3ccncc3)C2=O)ccc1O,EC50,[3],8.56 µM (active)
same,EC50,[4],7.59 µM (active)
same,AC50,HEK293,222 µM (active)
same,IC50,[5],48.1 µM (active)
O=C(O)c1ccc(-c2nc(-c3ccccc3)c(-c3cccs3)[nH]2)cc1,EC50,[6],> 55.7 µM (not active)
same,EC50,[7],> 55.7 µM (not active)
O=C(NCCc1cccnc1)c1cc(-c2ccco2)nc2ccccc12,IC50,[8],> 56.8 µM (inactive)
same,IC50,[9],29.2 µM (active)
COc1cc2c(cc1OC)-c1c(OC)c(OC)c(OC)c3ccnc(c13)C2=O [OXOPURPUREINE],IC50,Protein Rev,> 75.4 µM (not active)
same,IC50,[10],6.15 µM (active)
same,EC50,[11],28.6 µM (inconclusive)
same,EC50,[12],4.83 µM (active)
same,IC50,Hexokinase HKDC1,12.1 µM (active)
same,AC50,INS1,3.34 µM (active)
